Reference: PubChem BioAssay (NCI)
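48-hour exposure; five concentrations; linearly interpolated endpoints. At the GI50, growth is halved. TGI is the concentration that stops growth completely.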

How the values were obtained:
Test in all cases: growth of human tumour cells (NCI), 48 h
[1] = system: RXF 393 renal
[2] = system: RPMI-8226 leukemia
[3] = system: NCI-H226 lung
[4] = system: SF-268 CNS
[5] = system: KM12 colon
[6] = system: LOX IMVI melanoma
[7] = system: OVCAR-5 ovarian
[8] = system: A549 NSCLC
[9] = system: EKVX NSCLC
[10] = system: U251 CNS
[11] = system: MALME-3M melanoma
[12] = system: SK-MEL-2 melanoma
[13] = system: SNB-19 CNS
[14] = system: OVCAR-8 ovarian
[15] = system: COLO 205 colon
[16] = system: HCT-15 colon
[17] = system: CCRF-CEM leukemia
[18] = system: CAKI-1 renal
[19] = system: HCT-116 colon
[20] = system: IGROV1 ovarian
[21] = system: NCI/ADR-RES ovarian
[22] = system: SF-539 CNS
[23] = system: MDA-MB-231 breast
[24] = system: 786-0 renal
[25] = system: ACHN renal
[26] = system: NCI-H460 lung
[27] = system: BT-549 breast
[28] = system: HCC-2998 colon
[29] = system: OVCAR-3 ovarian
[30] = system: HS 578T breast
[31] = system: OVCAR-4 ovarian
[32] = system: UACC-257 melanoma
[33] = system: MCF7 breast
[34] = system: MOLT-4 leukemia
[35] = system: MDA-MB-435
[36] = system: SF-295 CNS
[37] = system: PC-3 prostate
[38] = system: K-562 leukemia
[39] = system: NCI-H23 lung
[40] = system: SK-MEL-28 melanoma
[41] = system: SK-MEL-5 melanoma
[42] = system: SW-620 colon
[43] = system: A498 renal
[44] = system: NCI-H522 lung
[45] = system: SN12C renal
[46] = system: UACC-62 melanoma
[47] = system: M14 melanoma
[48] = system: HT29 colon
[49] = system: TK-10 renal
[50] = system: UO-31 renal
[51] = system: HOP-92 NSCLC
[52] = system: SK-OV-3 ovarian
[53] = system: HOP-62 NSCLC
[54] = system: SNB-75 CNS
[55] = system: DU-145 prostate

## O=C1N=C2c3c(sc4c3CCCC4)N=CN2C1N=Nc1ccc(Cl)cc1 (stereo not given)
[1]
  GI50: 36.6 µM
  TGI: > 100 µM
[2]
  GI50: 3.2 µM
  TGI: 27.6 µM
[3]
  GI50: 22.8 µM
  TGI: > 100 µM
[4]
  GI50: 34.6 µM
  TGI: > 100 µM
[5]
  GI50: 13.6 µM
  TGI: 44 µM
[6]
  GI50: 29.8 µM
  TGI: > 100 µM
[7]
  GI50: 22.6 µM
  TGI: > 100 µM
[8]
  GI50: 42.2 µM
  TGI: > 100 µM
[9]
  GI50: 7.79 µM
  TGI: 39.1 µM
[10]
  GI50: 20.2 µM
  TGI: > 100 µM
[11]
  GI50: 23.9 µM
  TGI: 87.2 µM
[12]
  GI50: > 100 µM
  TGI: > 100 µM
[13]
  GI50: 25.2 µM
  TGI: > 100 µM
[14]
  GI50: 31.3 µM
  TGI: > 100 µM
[15]
  GI50: 10.7 µM
  TGI: 39.3 µM
[16]
  GI50: 37.2 µM
  TGI: > 100 µM
[17]
  GI50: 13.8 µM
  TGI: 87.9 µM
[18]
  GI50: 30.9 µM
  TGI: > 100 µM
[19]
  GI50: 17.8 µM
  TGI: > 100 µM
[20]
  GI50: 49.6 µM
  TGI: > 100 µM
[21]
  GI50: 26.2 µM
  TGI: > 100 µM
[22]
  GI50: 15.9 µM
  TGI: 46.8 µM
[23]
  GI50: 20.1 µM
  TGI: > 100 µM
[24]
  GI50: 39.5 µM
  TGI: > 100 µM
[25]
  GI50: 32.3 µM
  TGI: > 100 µM
[26]
  GI50: 27.8 µM
  TGI: 79.8 µM
[27]
  GI50: 1.44 µM
  TGI: 18.1 µM
[28]
  GI50: 24.4 µM
  TGI: 91.2 µM
[29]
  GI50: 21.9 µM
  TGI: > 100 µM
[30]
  GI50: 29.8 µM
  TGI: > 100 µM
[31]
  GI50: 51.9 µM
  TGI: > 100 µM
[32]
  GI50: 34.1 µM
  TGI: > 100 µM
[33]
  GI50: 20 µM
  TGI: 66.4 µM
[34]
  GI50: 13 µM
  TGI: 53 µM
[35]
  GI50: 19.8 µM
  TGI: 58.1 µM
[36]
  GI50: 25.4 µM
  TGI: 86.2 µM
[37]
  GI50: 13 µM
  TGI: 75.3 µM
[38]
  GI50: 5.13 µM
  TGI: 87.1 µM
[39]
  GI50: 12.3 µM
  TGI: 63.9 µM
[40]
  GI50: 35.6 µM
  TGI: > 100 µM
[41]
  GI50: 3.61 µM
  TGI: 15 µM
[42]
  GI50: 23.1 µM
  TGI: > 100 µM
[43]
  GI50: 21.3 µM
  TGI: 47.4 µM
[44]
  GI50: 26.6 µM
  TGI: > 100 µM
[45]
  GI50: 28.8 µM
  TGI: > 100 µM
[46]
  GI50: 16.7 µM
  TGI: 47.1 µM
[47]
  GI50: 24.7 µM
  TGI: > 100 µM
[48]
  GI50: 11.7 µM
  TGI: 39.8 µM
[49]
  GI50: 37.5 µM
  TGI: > 100 µM
[50]
  GI50: 39.3 µM
  TGI: > 100 µM
[51]
  GI50: 1.95 µM
  TGI: 20.2 µM
[52]
  GI50: 47.2 µM
  TGI: 97.6 µM
[53]
  GI50: 41.1 µM
  TGI: > 100 µM
[54]
  GI50: > 100 µM
  TGI: > 100 µM
[55]
  GI50: 0.291 µM
  TGI: 25.3 µM
